The results in this text go back to patent US5198419A, “Formulated medicines for enhancing the efficacy of beta-lactam antibiotics in prophylaxis and treatment against infectious disease due to pathogenic bacteria” (Immuno Japan Inc., priority 1989, dated 1993).

One assay deals with Escherichia coli #11. Put plainly: Example 6: experimental infection in mice, ampicillin with or without apolactoferrin. The format is in vivo, strain ddY. The settings on record: p.o. immediately after 1.2×10^6 CFU/mouse. The protocol:
(§1) For ED50 values, a range of amounts of antibiotics is given in the examples (e.g., penicillin G: 0.4, 0.2, 0.1, 0.05 mg/mouse). To calculate the ED50, groups of mice in the monotherapy groups and groups of mice in the combined therapy groups received the indicated amount of antibiotic (e.g., one group received 0.4 mg/mouse of penicillin G, one group received 0.2 mg/mouse of penicillin G, one group received 0.1 mg/mouse of penicillin G, one group received 0.05 mg/mouse of penicillin G).
Male mice, strain ddY, five weeks old, weighing an average of 21.5 g, were randomly allocated into groups (n=10), and they were intraperitoneally injected with Escherichia coli #11, 1.2×10^6 CFU/mouse. Immediately after the injection, the untreated control group was orally given 0.2 ml of distilled water, the second through the fifth groups were treated once orally by ampicillin (8, 4, 2 and 1 mg/mouse), and the sixth through the ninth groups with ampicillin (4, 2, 1 and 0.5 mg/mouse) plus apolactoferrin (1 mg/mouse) in 0.2 ml of distilled water. The mice were fed ad libitum and observed for one week under the same conditions as described in Example 1. […] It is apparent from the results that lactoferrin not only potentiates the efficacy of the cephalosporin class but also the penicillin class of antibiotics.

For the next assay, the system named is Proteus mirabilis GN79. Put plainly: Example 7: experimental infection in mice, ampicillin with or without native lactoferrin. The format is in vivo, strain ddY. The settings on record: GN79, po, 168 h, 1.3 × 10^6 CFU/mouse. The protocol:
as §1
Male mice, strain ddY, five weeks old, were randomly allocated into groups (n=10), and were intraperitoneally injected with Proteus mirabilis GN79 (1.3×10^6 CFU/mouse) or with Escherichia coli #11 (1.7×10^6 CFU/mouse) or with Klebsiella pneumoniae 3K25 (1.5×10^6 CFU/mouse). The doses are 1,000 times greater than the minimum lethal dose. Immediately after the injection, the first eight groups were orally given ampicillin, the second eight groups were orally given cephalexin, and the third eight groups were orally given cefaclor, respectively, each simultaneously with or without native lactoferrin (1 mg/mouse) in 0.2 ml of distilled water (see Table 7). All the mice were fed ad libitum and observed for one week under the same conditions as described in Example 1.

Assay [1] concerns Klebsiella pneumoniae strain 3K25. Put plainly: Example 3: experimental infection in mice, cefaclor with or without hololactoferrin. The settings on record: p.o. 1 h after 1×10^6 CFU/mouse. The format is in vivo, strain ICR. The protocol:
as §1
Sixty male mice, strain ICR, five weeks of age, weighing 21.3±1.5 g (mean±the standard deviation) were randomly allocated into ten groups (n=6), and intraperitoneally injected with Klebsiella pneumoniae strain 3K25, 1×10^6 CFU/mouse. One hour after the injection, the first group was orally given 0.2 ml of physiological saline, the second group orally given hololactoferrin (100% ferric ion saturated lactoferrin, 0.4 mg/mouse), the third through the sixth groups orally given cefaclor (2.0, 1.0, 0.5 and 0.25 mg/mouse each) in 0.2 ml of saline, and the seventh through the tenth groups orally given cefaclor (2.0, 1.0, 0.5 and 0.25 mg/mouse each) and hololactoferrin (100% iron saturated lactoferrin, 0.4 mg/mouse) in 0.2 ml of saline. The mice were fed ad libitum and observed for one week under the same conditions as described in Example 1.

The subject of assay [2] is Klebsiella pneumoniae 3K25. Put plainly: Example 7: experimental infection in mice, cefaclor with or without native lactoferrin. The format is in vivo, strain ddY. The settings on record: Klebsiella pneumoniae, 3K25, po, 168 h, 1.5 × 10^6 CFU/mouse.
Another assay has as its system bacteria in urine. Put plainly: Example 11: patients with chronic urinary tract infection, cefaclor with or without apolactoferrin. The format is in vivo, human patients. The settings on record: four weeks. As to the method: Seventeen patients (male 6, female 11, an average 63.5 years old) with chronic urinary tract infection were randomly allocated into two groups. All these patients excreted at least one species of bacteria in their urine for longer than four weeks, although they were treated orally with antibacterial agents. The first group (n=9) was treated for four weeks with 1,200 mg of cefaclor (400 mg, three times a day) and the second group (n=8) with the same dose of cefaclor (three times a day) combined with 600 mg of apolactoferrin (200 mg, three times a day). Urine specimens were collected every one week and the species of bacteria were identified and the quantity of excreted bacteria determined.

In assay [3] the test system is Klebsiella pneumoniae strain 3K25. Put plainly: Example 4: experimental infection in mice, cefotetan with or without native lactoferrin. The format is in vivo. As to conditions: p.o. 1 h after 1×10^6 CFU/mouse. As to the method: as §1
The experimental design is similar to that of Example 3. The mice groups (n=6) were intraperitoneally injected with Klebsiella pneumoniae strain 3K25, 1×10^6 CFU/mouse, and one hour after the injection, orally active cephalosporin, cefotetan (2.0, 1.0, 0.5 and 0.25 mg/mouse) was orally administered with or without native lactoferrin (0.4 mg/mouse) in 0.2 ml physiological saline.

With `CC1(C)S[C@@H]2[C@H](NC(=O)[C@H](N)c3ccccc3)C(=O)N2[C@H]1C(=O)O` [ampicillin], the ED50 in the assay on Escherichia coli #11 (ampicillin combined therapy with apolactoferrin (1 mg/mouse)) came out at 0.75 mg/mouse; in the assay with Escherichia coli #11 (ampicillin monotherapy), 6.02 mg/mouse; in the assay with Proteus mirabilis GN79 (ampicillin alone) it was 133 mg/kg; in the assay on Proteus mirabilis GN79 (ampicillin with lactoferrin (1 mg/mouse)), 24.9 mg/kg.
For `N[C@@H](C(=O)N[C@@H]1C(=O)N2C(C(=O)O)=C(Cl)CS[C@H]12)c1ccccc1` [cefaclor], the ED50 is 0.30 mg/mouse in assay [1] (cefaclor combined therapy with hololactoferrin (0.4 mg/mouse)), 0.63 mg/mouse in assay [1] (cefaclor monotherapy), 28.5 mg/kg in assay [2] (cefaclor alone) and 10 mg/kg in assay [2] (cefaclor with lactoferrin (1 mg/mouse)). Also, in the assay with bacteria in urine (cefaclor 1,200 mg combined with 600 mg apolactoferrin daily), the “bacteria in the urine” value is recorded as “bacteria were no longer detected in the urine”. Moreover, in the assay on bacteria in urine (cefaclor monotherapy 1,200 mg daily), the “patients still excreting bacteria” value is given as “six patients out of nine”. For the same molecule, in the assay on bacteria in urine (cefaclor with apolactoferrin), the “efficacy of combined therapy versus monotherapy” value is “significantly more effective”.
Consider `CO[C@@]1(NC(=O)C2SC(=C(C(N)=O)C(=O)O)S2)C(=O)N2C(C(=O)O)=C(CSc3nnnn3C)CS[C@@H]21` (stereo partly shown) [cefotetan], for which the ED50 in assay [3] (cefotetan combined therapy with native lactoferrin (0.4 mg/mouse)) turned out to be 0.16 mg/mouse; in assay [3] (cefotetan monotherapy), 0.50 mg/mouse.
